Values of other authors as cited in patent US5789395A, “Method of using tetracycline compounds for inhibition of endogenous nitric oxide production” (The Research Foundation of State University of New York, priority 1996, dated 1998).

What was measured:
[1] = test system: gelatinase in ROS 17/2.8 osteoblastic cell line; conditions: Vernillo et al. 1993; cited from earlier work
[2] = test system: gelatinase in UMR 106-01 osteoblastic cell line; conditions: Vernillo et al. 1993; cited from earlier work
collagenase = conditions: cited from earlier work
dog models of OA = conditions: prophylactic administration; Yu et al. (1992); cited from earlier work
[3] = test system: patients with mild and moderate arthritis; conditions: Tilley et al. 1995; cited from earlier work

Structure (SMILES) | IC50, gelatinase activity [1] | IC50, gelatinase activity [2] | anti-collagenase activity (collagenase) | severity of OA (dog models of OA) | safety and efficacy in arthritis [3]
C[C@H]1c2cccc(O)c2C(O)=C2C(=O)[C@]3(O)C(O)=C(C(N)=O)C(=O)[C@@H](N(C)C)[C@@H]3[C@@H](O)[C@@H]21 [doxycycline] | 20 to 30 µg/mL | > 200 µg/mL | inhibits collagenase activity via direct effects on the enzyme | markedly reduced the severity of OA | 
CN(C)c1ccc(O)c2c1C[C@H]1C[C@H]3[C@H](N(C)C)C(O)=C(C(N)=O)C(=O)[C@@]3(O)C(O)=C1C2=O [minocycline] |  |  |  |  | safe and effective for patients with mild and moderate arthritis
